In ChEMBL document CHEMBL1201862, “PubChem BioAssay data set” (2004):
Activity calls are given as the source filed them.

Experiments:
[1] = target: T1, Short transient receptor potential channel 4 (Mus musculus, UniProt Q9QUQ5); experiment: block of DAMGO-driven TRPC4 calcium entry – cell-based, HEK293 TRPC4/mu-opioid, Fluo-4 calcium, dose response (AID 434942); format: functional;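 also: potency of inhibitors blocking the TRPC4 calcium response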
T1 sequence (Q9QUQ5 whole entry): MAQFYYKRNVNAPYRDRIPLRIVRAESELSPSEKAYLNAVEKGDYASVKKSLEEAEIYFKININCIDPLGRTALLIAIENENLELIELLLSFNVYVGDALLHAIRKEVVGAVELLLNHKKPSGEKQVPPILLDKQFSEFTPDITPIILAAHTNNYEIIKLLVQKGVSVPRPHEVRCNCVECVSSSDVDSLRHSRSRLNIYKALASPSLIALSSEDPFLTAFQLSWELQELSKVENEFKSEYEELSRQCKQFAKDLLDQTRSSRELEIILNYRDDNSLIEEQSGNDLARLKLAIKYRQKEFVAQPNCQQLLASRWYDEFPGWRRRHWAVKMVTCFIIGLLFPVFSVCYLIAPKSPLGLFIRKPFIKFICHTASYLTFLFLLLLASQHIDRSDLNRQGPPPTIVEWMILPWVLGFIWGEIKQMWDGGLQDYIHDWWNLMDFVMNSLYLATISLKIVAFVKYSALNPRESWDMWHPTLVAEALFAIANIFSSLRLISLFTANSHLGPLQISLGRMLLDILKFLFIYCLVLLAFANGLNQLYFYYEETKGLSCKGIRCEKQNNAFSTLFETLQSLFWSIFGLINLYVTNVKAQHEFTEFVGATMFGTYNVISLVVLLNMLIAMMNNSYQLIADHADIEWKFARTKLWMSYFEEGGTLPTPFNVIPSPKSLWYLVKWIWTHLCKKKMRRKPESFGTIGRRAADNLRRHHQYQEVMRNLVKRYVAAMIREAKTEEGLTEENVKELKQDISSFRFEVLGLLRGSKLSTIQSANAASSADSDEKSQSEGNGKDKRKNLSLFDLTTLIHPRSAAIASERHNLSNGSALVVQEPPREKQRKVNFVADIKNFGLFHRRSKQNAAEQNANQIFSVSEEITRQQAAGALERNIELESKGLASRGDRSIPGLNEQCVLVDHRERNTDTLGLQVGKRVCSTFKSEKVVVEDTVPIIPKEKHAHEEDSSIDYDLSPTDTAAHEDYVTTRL

Cytochrome P450 2C19 = Cytochrome P450 2C19 (Homo sapiens, UniProt P33261); experiment: Cytochrome panel assay with activity outcomes. Panel member name: p450-cyp2c19 Compounds with AC50 equal or less than 10 uM are considered active; format: functional; conditions: read-out: AC50
Cytochrome P450 2D6 = Cytochrome P450 2D6 (Homo sapiens, UniProt P10635);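 also: CYP2D6 member of a cytochrome P450 panel assay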
[2] = target: T2, Histone-lysine N-methyltransferase NSD2 (Homo sapiens, UniProt O96028); format: biochemical
T2 sequence (O96028 whole entry): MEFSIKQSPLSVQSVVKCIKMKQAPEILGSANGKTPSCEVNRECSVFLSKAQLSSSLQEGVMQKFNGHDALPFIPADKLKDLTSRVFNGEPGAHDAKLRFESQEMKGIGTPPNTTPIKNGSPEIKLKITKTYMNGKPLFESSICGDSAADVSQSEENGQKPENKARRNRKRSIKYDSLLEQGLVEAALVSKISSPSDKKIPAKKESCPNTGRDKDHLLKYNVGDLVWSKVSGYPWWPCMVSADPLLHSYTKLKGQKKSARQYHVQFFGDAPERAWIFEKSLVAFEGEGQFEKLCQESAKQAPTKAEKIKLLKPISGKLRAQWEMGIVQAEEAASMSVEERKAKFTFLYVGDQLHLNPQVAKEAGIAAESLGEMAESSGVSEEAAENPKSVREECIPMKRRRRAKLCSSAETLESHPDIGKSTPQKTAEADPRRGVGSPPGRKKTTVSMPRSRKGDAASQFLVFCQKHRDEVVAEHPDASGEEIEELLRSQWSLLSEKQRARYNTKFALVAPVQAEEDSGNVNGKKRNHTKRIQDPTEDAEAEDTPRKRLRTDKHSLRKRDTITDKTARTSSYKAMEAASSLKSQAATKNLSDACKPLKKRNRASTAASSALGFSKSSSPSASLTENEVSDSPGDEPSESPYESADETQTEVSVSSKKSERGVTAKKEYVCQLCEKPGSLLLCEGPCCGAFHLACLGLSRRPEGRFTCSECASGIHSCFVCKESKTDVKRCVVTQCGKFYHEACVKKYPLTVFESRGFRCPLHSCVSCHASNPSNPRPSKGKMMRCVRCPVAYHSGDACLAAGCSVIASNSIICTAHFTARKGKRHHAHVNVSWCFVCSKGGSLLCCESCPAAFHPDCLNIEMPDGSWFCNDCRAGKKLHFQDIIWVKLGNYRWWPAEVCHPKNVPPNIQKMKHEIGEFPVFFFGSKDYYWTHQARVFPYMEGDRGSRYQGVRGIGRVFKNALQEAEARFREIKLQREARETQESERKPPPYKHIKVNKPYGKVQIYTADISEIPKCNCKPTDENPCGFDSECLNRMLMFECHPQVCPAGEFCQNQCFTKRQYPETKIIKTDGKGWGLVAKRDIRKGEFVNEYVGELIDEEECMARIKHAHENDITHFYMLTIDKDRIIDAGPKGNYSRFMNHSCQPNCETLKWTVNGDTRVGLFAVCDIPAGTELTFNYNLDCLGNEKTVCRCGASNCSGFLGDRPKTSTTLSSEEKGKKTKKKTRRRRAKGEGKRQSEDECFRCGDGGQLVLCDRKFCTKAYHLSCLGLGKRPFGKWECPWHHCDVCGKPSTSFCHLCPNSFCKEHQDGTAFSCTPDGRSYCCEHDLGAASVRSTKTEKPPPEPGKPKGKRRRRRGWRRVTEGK

Nonstructural protein 1 = Nonstructural protein 1 (Influenza A virus, UniProt Q194T2); format: functional, Influenza A virus (A/California/07/2009(H1N1))
[3] = non-specific 3'UTR reporter inhibition in Clone20-Shn3RL – cell-based, Renilla luciferase, cherry-picked, counter-screen for Shn3 inhibitor project, dose response (AID 624133); format: functional
[4] = reduction of Shn3 3'UTR-driven luciferase in osteoblasts – cell-based, Clone20 osteoblasts, firefly luciferase, cherry-picked, dose response (AID 624132); format: functional;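 also: firefly luciferase luminescence from reporter carrying the Shn3 3'UTR in osteoblasts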
[5] = target: Glucose-6-phosphate 1-dehydrogenase (Homo sapiens, UniProt P11413); experiment: inhibition of Homo sapiens G6PD, dose series – biochemical, fluorescence, selectivity assay for P. falciparum G6PD inhibitor project, dose response (AID 504792); format: functional
[6] = NIH3T3 cell viability loss – ATP luminescence, mouse fibroblasts, counter-screen, dose response (AID 2010); format: functional, cell-based;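 also: cells exposed to compound for about 90 hours before reading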
[7] = Trypanosoma cruzi growth suppression in host cells – NIH3T3 host cells, beta-gal luminescence, confirmation (AID 2044); format: functional, cell-based;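 also: intracellular parasites grown in NIH/3T3 mouse fibroblasts as host cells; luminescent beta-galactosidase reporter signal from transgenic T. cruzi replicating inside host cells; inhibitors lower the luminescence signal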

Nonstructural protein 1, sequence (Q194T2 whole entry): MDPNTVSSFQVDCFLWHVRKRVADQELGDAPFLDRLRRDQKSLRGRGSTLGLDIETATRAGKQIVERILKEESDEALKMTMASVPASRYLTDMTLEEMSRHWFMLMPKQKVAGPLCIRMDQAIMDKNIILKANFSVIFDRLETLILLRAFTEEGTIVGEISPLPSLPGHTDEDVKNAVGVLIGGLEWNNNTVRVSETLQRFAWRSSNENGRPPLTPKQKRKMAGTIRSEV
Cytochrome P450 2C19, sequence (P33261 whole entry): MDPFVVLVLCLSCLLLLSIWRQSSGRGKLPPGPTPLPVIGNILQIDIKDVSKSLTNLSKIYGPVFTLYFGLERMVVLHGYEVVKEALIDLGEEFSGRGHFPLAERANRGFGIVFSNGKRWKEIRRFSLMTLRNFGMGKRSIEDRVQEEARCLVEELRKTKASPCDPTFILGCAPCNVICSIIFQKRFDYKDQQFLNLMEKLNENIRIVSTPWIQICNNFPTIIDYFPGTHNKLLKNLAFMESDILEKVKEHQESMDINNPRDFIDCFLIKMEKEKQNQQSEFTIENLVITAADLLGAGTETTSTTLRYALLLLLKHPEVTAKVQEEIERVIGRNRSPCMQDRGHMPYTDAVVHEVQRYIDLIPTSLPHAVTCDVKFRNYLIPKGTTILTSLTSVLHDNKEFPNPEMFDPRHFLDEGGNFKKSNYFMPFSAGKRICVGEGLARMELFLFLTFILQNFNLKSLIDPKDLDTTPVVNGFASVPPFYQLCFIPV
Cytochrome P450 2D6, sequence (P10635 whole entry): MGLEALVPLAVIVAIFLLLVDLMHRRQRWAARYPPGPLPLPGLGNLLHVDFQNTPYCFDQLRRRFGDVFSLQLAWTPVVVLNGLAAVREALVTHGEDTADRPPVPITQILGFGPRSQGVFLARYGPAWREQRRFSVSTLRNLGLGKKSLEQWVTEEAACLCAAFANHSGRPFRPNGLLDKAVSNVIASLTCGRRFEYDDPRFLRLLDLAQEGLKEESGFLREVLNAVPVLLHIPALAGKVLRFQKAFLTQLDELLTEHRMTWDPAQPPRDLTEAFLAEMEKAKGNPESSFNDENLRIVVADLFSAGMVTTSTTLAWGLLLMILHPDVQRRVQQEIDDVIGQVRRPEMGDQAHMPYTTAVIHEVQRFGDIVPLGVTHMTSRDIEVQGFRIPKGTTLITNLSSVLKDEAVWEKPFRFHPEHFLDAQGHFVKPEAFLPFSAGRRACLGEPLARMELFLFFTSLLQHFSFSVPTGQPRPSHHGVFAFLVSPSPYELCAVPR
Glucose-6-phosphate 1-dehydrogenase, sequence (P11413 whole entry): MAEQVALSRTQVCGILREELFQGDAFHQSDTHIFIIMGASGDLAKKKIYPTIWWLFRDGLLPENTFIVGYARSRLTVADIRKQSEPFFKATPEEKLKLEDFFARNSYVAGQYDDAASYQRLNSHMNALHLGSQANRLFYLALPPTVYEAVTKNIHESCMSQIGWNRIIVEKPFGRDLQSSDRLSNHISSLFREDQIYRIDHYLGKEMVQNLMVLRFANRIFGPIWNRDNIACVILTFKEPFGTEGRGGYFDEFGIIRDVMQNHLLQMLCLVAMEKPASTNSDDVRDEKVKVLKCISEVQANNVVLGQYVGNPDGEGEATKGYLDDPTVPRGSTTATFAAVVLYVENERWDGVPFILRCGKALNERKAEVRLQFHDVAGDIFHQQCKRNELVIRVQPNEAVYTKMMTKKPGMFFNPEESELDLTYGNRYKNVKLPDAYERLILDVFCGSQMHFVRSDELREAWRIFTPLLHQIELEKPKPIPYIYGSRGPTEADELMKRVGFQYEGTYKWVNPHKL

**Q.** For `O=C(CSc1nnc(-c2ccc(Cl)cc2Cl)n1C1CCCCC1)NC1CCS(=O)(=O)C1` (stereo not drawn), which EC50 [1] is on record?
**A.** 1.68 µM (active)

**Q.** What about the AC50 (Cytochrome P450 2C19) of the same compound?
**A.** 39.8 µM (inconclusive)

**Q.** And the AC50 (Cytochrome P450 2D6)?
**A.** 35.5 µM (inconclusive)

**Q.** With `CN(C)c1ccc(CN2CC=C(c3ccc(F)cc3)CC2)cc1` as the compound, how does the AC50 [2] read?
**A.** > 20 µM (inactive)

**Q.** And the IC50 (Nonstructural protein 1)?
**A.** 50.2 µM (active)

**Q.** With `CCC(O)(c1ccc(OC)cc1)C(CN1CCOCC1)c1ccccc1` (stereo not drawn) as the compound, how does the EC50 [1] read?
**A.** 5.96 µM (active)

**Q.** Which IC50 (Nonstructural protein 1) does the source give for `O=[N+]([O-])c1ccc(C[n+]2cccc3ccc4cccnc4c32)cc1` here?
**A.** 7.75 µM (active)

**Q.** For `O=C(CSc1nnc(-c2ccc(Cl)cc2Cl)n1C1CCCCC1)N1CCCC1`, which EC50 [1] is on record?
**A.** 2.37 µM (active)

**Q.** What about the AC50 [3] of the same compound?
**A.** 23 µM (active)

**Q.** And the AC50 [4]?
**A.** > 70 µM (inactive)

**Q.** Which IC50 [5] does the source give for `COc1cc(CNc2ccc3[nH]c(O)nc3c2)ccc1OCc1ccccc1` here?
**A.** > 80 µM (inactive)

**Q.** For `C=CCN1CCN(C(c2cccc(OC)c2OC)c2nnnn2CCC(C)C)CC1` (stereo not drawn), which EC50 [1] is on record?
**A.** 1.68 µM (active)

**Q.** For `Fc1ccccc1COc1ccc(Br)cc1CNCC1CCCO1` (stereo not drawn), which EC50 [1] is on record?
**A.** 0.944 µM (active)

**Q.** Which IC50 (Nonstructural protein 1) does the source give for `CN1c2ccccc2N(C)C1(C)c1cccc2ccccc12` here?
**A.** 39.3 µM (active)

**Q.** What about the EC50 [6] of the same compound?
**A.** > 30 µM (not active)

**Q.** What about the EC50 [7] of the same compound?
**A.** 544 nM (active)

**Q.** Which EC50 [1] does the source give for `COc1ccccc1N1CCN(CCCNC(=O)Nc2ccccc2)CC1` here?
**A.** 1.88 µM (active)

**Q.** For `COc1cc(O)c(C(CCN2CCN(c3ccccc3)CC2)c2ccc(N(C)C)cc2)c(OC)c1` (stereo not drawn), which IC50 (Nonstructural protein 1) is on record?
**A.** 18.2 µM (active)
